Data reported in the supplement of paper PMC10331698.
± gives the standard deviation of the averaged measurements.

What was measured:
Assay in all cases: level (log10 ratio to DMSO vehicle control); higher = higher biomarker level / cell amount than vehicle control
Details in all cases: in DMSO
Perfluorodecanoic acid = compound: O=C(O)C(F)(F)C(F)(F)C(F)(F)C(F)(F)C(F)(F)C(F)(F)C(F)(F)C(F)(F)C(F)(F)F [Perfluorodecanoic acid]
Description: (§1)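 BioMAP Diversity Plus panel of 12 human primary cell co-culture systems (3C, 4H, LPS, SAg, BT, BF4T, BE3C, CASM3C, HDF3CGF, KF3CT, MyoF, Mphg). Compounds were added 1 h before stimulation and left for 24 h (MyoF 48 h; BT 72 h for soluble read-outs or 6 d for IgG). Biomarkers were read by ELISA, cytotoxicity by SRB, PBMC viability and proliferation by Alamar Blue. Each well value was divided by the mean of 8 DMSO control wells on the same plate and log10 transformed; duplicate blinded samples were tested at 4 concentrations.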

Heptafluorobutyramide = compound: NC(=O)C(F)(F)C(F)(F)C(F)(F)F [Heptafluorobutyramide]
Description: as §1

Perfluoroheptanoic acid = compound: O=C(O)C(F)(F)C(F)(F)C(F)(F)C(F)(F)C(F)(F)C(F)(F)F [Perfluoroheptanoic acid]
Description: as §1

Pentafluoropropionamide = compound: NC(=O)C(F)(F)C(F)(F)F [Pentafluoropropionamide]
Description: as §1

[1] = compound: FC(F)(F)C(F)(C(F)(F)F)C(F)(F)C(F)(F)CC1CO1 [3-(Perfluoro-3-methylbutyl)-1,2-propenoxide]
Description: as §1

[2] = compound: CCN(CCO)S(=O)(=O)C(F)(F)C(F)(F)C(F)(F)C(F)(F)C(F)(F)C(F)(F)C(F)(F)C(F)(F)F [N-Ethyl-N-(2-hydroxyethyl)perfluorooctanesulfonamide]
Description: as §1

[3] = compound: O=C(O)C(F)(F)C(F)(F)OC(F)(F)F [Perfluoro-3-methoxypropanoic acid]
Description: as §1

Row | Test System | level (log10) (Perfluorodecanoic acid; 6700 nM) | level (log10) (Perfluorodecanoic acid; 20000 nM) | level (log10) (Heptafluorobutyramide; 6700 nM) | level (log10) (Heptafluorobutyramide; 20000 nM) | level (log10) (Heptafluorobutyramide; 60000 nM) | level (log10) (Perfluoroheptanoic acid; 6700 nM) | level (log10) (Perfluoroheptanoic acid; 20000 nM) | level (log10) (Perfluoroheptanoic acid; 60000 nM) | level (log10) (Pentafluoropropionamide; 6700 nM) | level (log10) (Pentafluoropropionamide; 20000 nM) | level (log10) (Pentafluoropropionamide; 60000 nM) | level (log10) ([1]; 6700 nM) | level (log10) ([1]; 20000 nM) | level (log10) ([2]; 6700 nM) | level (log10) ([2]; 20000 nM) | level (log10) ([3]; 6700 nM) | level (log10) ([3]; 20000 nM) | level (log10) ([3]; 60000 nM)
1 | HDF3CGF:CXCL9/MIG | -0.069 ± 0.048 | -0.27 ± 0.061 | 0.0055 ± 0.026 | 0.0035 ± 0.019 | -0.0225 ± 0.025 | -0.009 ± 0.0071 | -0.002 ± 0.021 | 0.0165 ± 0.0064 | -0.016 ± 0.0042 | 0.0095 ± 0.00071 | 0.0015 ± 0.0078 | 0.0165 ± 0.012 | 0.0155 ± 0.016 | -0.0065 ± 0.015 | -0.159 ± 0.023 | -0.016 ± 0.016 | 0.0155 ± 0.019 | 0.019 ± 0.0014
2 | HDF3CGF:CXCL10/IP-10 | -0.0745 ± 0.015 | -0.427 ± 0.019 | 0.007 ± 0.0099 | 0 ± 0.0057 | 0.0035 ± 0.011 | -0.0295 ± 0.046 | -0.015 ± 0.016 | -0.0295 ± 0.0092 | -0.0075 ± 0.022 | -0.009 ± 0.011 | 0.006 ± 0.04 | 0.003 ± 0.021 | -0.034 ± 0.075 | -0.0725 ± 0.05 | -0.206 ± 0.0057 | 0.001 ± 0.011 | 0.0055 ± 0.011 | -0.0135 ± 0.021
3 | HDF3CGF:CXCL11/I-TAC | 0.046 ± 0.0014 | -0.469 ± 0.28 | 0.0015 ± 0.00071 | -0.0015 ± 0.0092 | -0.0305 ± 0.015 | -0.0165 ± 0.013 | 0.003 ± 0.011 | 0.01 ± 0.016 | 0.0135 ± 0.0035 | 0.0195 ± 0.018 | 0.022 ± 0.024 | -0.0005 ± 0.079 | -0.0275 ± 0.087 | -0.0535 ± 0.046 | -0.172 ± 0.041 | -0.001 ± 0.023 | 0.0165 ± 0.012 | 0.0105 ± 0.00071
4 | HDF3CGF:Collagen I | -0.02 ± 0.025 | -0.0095 ± 0.04 | 0.0065 ± 0.011 | -0.0025 ± 0.015 | 0.0155 ± 0.069 | -0.036 ± 0.045 | -0.009 ± 0.024 | 0.0395 ± 0.061 | 0.039 ± 0.075 | 0.0205 ± 0.033 | 0.055 ± 0.047 | 0.003 ± 0.078 | -0.0135 ± 0.15 | 0.0835 ± 0.03 | 0.112 ± 0.0092 | -0.0095 ± 0.07 | -0.0085 ± 0.052 | 0.058 ± 0.025
5 | HDF3CGF:Collagen III | -0.08 ± 0.058 | -0.0755 ± 0.021 | -0.017 ± 0.014 | -0.006 ± 0.013 | -0.0145 ± 0.005 | -0.021 ± 0.011 | -0.0385 ± 0.033 | -0.013 ± 0.016 | 0.026 ± 0.02 | 0.009 ± 0.028 | 0.034 ± 0.0028 | -0.0295 ± 0.049 | -0.049 ± 0.081 | -0.0465 ± 0.05 | -0.142 ± 0.044 | -0.0025 ± 0.0078 | 0.009 ± 0.024 | 0.039 ± 0.05
6 | HDF3CGF:EGFR | -0.075 ± 0.054 | -0.195 ± 0.026 | 0.0095 ± 0.059 | 0.0005 ± 0.046 | -0.0155 ± 0.032 | -0.008 ± 0.016 | 0.004 ± 0.0028 | 0.01 ± 0.023 | 0.006 ± 0.0085 | -0.005 ± 0.011 | 0.007 ± 0.021 | -0.015 ± 0.0028 | 0.0035 ± 0.023 | -0.102 ± 0.024 | -0.115 ± 0.0021 | -0.002 ± 0.0085 | 0.003 ± 0.0085 | 0.0165 ± 0.029
7 | HDF3CGF:M-CSF | 0.023 ± 0.0057 | -0.275 ± 0.018 | -0.0145 ± 0.00071 | -0.009 | 0.0165 ± 0.035 | -0.009 ± 0.0099 | 0.0025 ± 0.015 | 0.01 ± 0.0014 | 0.0015 ± 0.011 | -0.0135 ± 0.0035 | 0.0085 ± 0.06 | -0.0115 ± 0.018 | -0.0145 ± 0.012 | -0.101 ± 0.013 | -0.27 ± 0.0071 | -0.005 ± 0.0085 | -0.0035 ± 0.0021 | -0.005 ± 0.0085
8 | HDF3CGF:MMP-1 | -0.041 ± 0.0028 | -0.174 ± 0.08 | 0.004 ± 0.011 | -0.01 | 0.001 ± 0.0057 | -0.0105 ± 0.012 | 0.0025 ± 0.00071 | 0.0065 ± 0.005 | 0.006 ± 0.0085 | -0.011 ± 0.0085 | -0.01 | 0.0095 ± 0.012 | -0.008 ± 0.024 | 0.043 ± 0.013 | 0.0065 ± 0.026 | -0.01 ± 0.011 | 0 ± 0.0071 | -0.0035 ± 0.021
9 | HDF3CGF:PAI-I | 0.15 ± 0.051 | -0.107 ± 0.1 | -0.0105 ± 0.018 | -0.0275 ± 0.028 | -0.0125 ± 0.03 | -0.017 ± 0.0028 | -0.0215 ± 0.0035 | -0.008 ± 0.041 | 0.0125 ± 0.04 | -0.011 ± 0.044 | 0 ± 0.014 | -0.003 ± 0.028 | 0.0125 ± 0.015 | -0.0695 ± 0.061 | -0.211 ± 0.08 | 0.0025 ± 0.0092 | 0.0135 ± 0.026 | 0.0185 ± 0.012
10 | HDF3CGF:Proliferation 72hr | 0.115 ± 0.025 | -0.934 ± 0.037 | 0.0015 ± 0.088 | 0.016 ± 0.041 | -0.0205 ± 0.053 | -0.054 ± 0.033 | 0.0515 ± 0.098 | -0.018 ± 0.018 | 0.0225 ± 0.018 | 0.045 ± 0.042 | 0.076 ± 0.013 | 0 ± 0.034 | 0.0055 ± 0.0078 | -0.391 ± 0.079 | -0.746 ± 0.094 | -0.028 ± 0.0085 | 0.0125 ± 0.016 | 0.0225 ± 0.023
11 | HDF3CGF:SRB | 0.0725 ± 0.044 | 0.131 ± 0.016 | 0.018 ± 0.0014 | 0.0035 ± 0.025 | 0.0075 ± 0.03 | -0.029 ± 0.016 | 0.0125 ± 0.064 | -0.045 ± 0.052 | -0.0105 ± 0.011 | 0.0265 ± 0.079 | 0.0445 ± 0.086 | 0.0005 ± 0.057 | 0.0145 ± 0.06 | -0.127 ± 0.011 | -0.153 ± 0.084 | -0.0005 ± 0.042 | 0.014 ± 0.0071 | 0 ± 0.023
12 | HDF3CGF:TIMP-1 | 0.016 ± 0.037 | -0.0995 ± 0.03 | 0.002 ± 0.017 | -0.017 ± 0.051 | -0.001 ± 0.0042 | -0.0015 ± 0.00071 | -0.0115 ± 0.0035 | -0.0055 ± 0.035 | -0.0265 ± 0.0092 | -0.01 ± 0.018 | 0.0045 ± 0.032 | -0.012 ± 0.035 | -0.035 ± 0.033 | 0.005 ± 0.081 | -0.0605 ± 0.074 | -0.0285 ± 0.026 | 0.0185 ± 0.005 | 0.036 ± 0.071
13 | HDF3CGF:TIMP-2 | -0.006 ± 0.028 | -0.349 ± 0.17 | -0.0195 ± 0.025 | -0.0065 ± 0.033 | -0.009 ± 0.071 | -0.011 ± 0.018 | -0.012 ± 0.017 | 0.014 ± 0.0085 | -0.0185 ± 0.026 | 0.008 ± 0.0057 | 0.033 ± 0.013 | -0.043 ± 0.081 | -0.0475 ± 0.1 | 0.136 ± 0.0057 | 0.108 ± 0.0071 | -0.029 ± 0.047 | 0.001 ± 0.0099 | -0.01 ± 0.023
14 | KF3CT:CCL2/MCP-1 | -0.127 ± 0.023 | -0.321 ± 0.032 | -0.006 ± 0.0014 | -0.009 ± 0.013 | 0.0165 ± 0.057 | 0.0165 ± 0.021 | 0.033 ± 0.024 | 0.0255 ± 0.053 | -0.0205 ± 0.015 | -0.0285 ± 0.023 | 0.0155 ± 0.071 | -0.004 ± 0.03 | 0.022 ± 0.04 | -0.0205 ± 0.0078 | -0.102 ± 0.019 | 0.0035 ± 0.011 | -0.0165 ± 0.0092 | -0.011 ± 0.013
15 | KF3CT:CD54/ICAM-1 | 0.0095 ± 0.013 | -0.003 ± 0.0028 | -0.012 ± 0.014 | -0.002 ± 0.0028 | 0.0015 ± 0.012 | -0.023 ± 0.0042 | -0.0085 ± 0.0035 | -0.0315 ± 0.00071 | -0.009 ± 0.0057 | -0.0045 ± 0.016 | 0.006 ± 0.018 | 0.0055 ± 0.011 | -0.0105 ± 0.0064 | 0.0415 ± 0.0078 | 0.002 ± 0.0028 | 0.019 ± 0.0085 | 0.009 ± 0.018 | 0.009 ± 0.0071
16 | KF3CT:CXCL8/IL-8 | -0.0225 ± 0.011 | -0.0035 ± 0.018 | 0.003 | 0.002 ± 0.0085 | 0.0095 ± 0.012 | -0.0055 ± 0.0064 | 0.002 | 0.0105 ± 0.00071 | -0.005 ± 0.0042 | -0.0105 ± 0.005 | 0.0215 ± 0.012 | -0.0155 ± 0.0078 | 0.0035 ± 0.013 | -0.0975 ± 0.012 | -0.0935 ± 0.0064 | 0.007 ± 0.016 | 0.028 ± 0.031 | 0.017 ± 0.02
